Reference: US5348941A, “Stabilizers for fibroblast growth factors” (Merck & Co., Inc., priority 1992, dated 1994)

How the values were obtained:
aFGF [1] = target: T1, aFGF (Homo sapiens, UniProt P05230); assay: Thermal denaturation (Tm) of aFGF by circular dichroism; assay type: biochemical; conditions: for Tm of aFGF (maximum Tm induced by ligand), circular dichroism: PBS pH 7.2, excess ligand (1-3X by weight; 120 mM sodium sulfate, 10 mM tetrapolyphosphate)
T1 construct: The recombinant derived, 140 amino add form is the preferred form of aFGF; N-terminal methionine (MetHaFGF); made in house; host or cells: microbial cells (preferred embodiment)
T1 sequence (P05230 16-155 limits assumed): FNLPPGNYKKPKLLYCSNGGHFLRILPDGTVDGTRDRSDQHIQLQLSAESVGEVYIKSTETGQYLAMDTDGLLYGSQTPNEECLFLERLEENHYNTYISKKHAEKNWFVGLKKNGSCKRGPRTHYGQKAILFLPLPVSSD
Experimental: Circular Dichroism (CD) spectra are measured with an AVIV 62 DS spectropolarimeter. Samples of aFGF at about 100 μg/ml in a PBS buffer (6 mM sodium phosphate, 120 mM NaCl, pH 7.2) containing various ligands are placed into 1 mm pathlength cells and the cell temperature is controlled by circulating a water/ethylene glycol mixture through the cell holder. Thermal denaturation is carded out under computer control by increasing the temperature of the water bath in 2° C. increments, followed by a two-minute equilibration period at each temperature to allow the sample to reach thermal equilibrium. Reproducibility of the midpoint of these temperature melting curves (Tm) is ±2° C.
The maximum Tm values induced by 12 different ligands as determined by circular dichroism measurements at 228 nm are summarized in the first column of Table II. All of these ligands stabilize aFGF by 15°-25° C. in a manner similar to that originally observed with heparin. […] Furthermore, sulfate unions are found near analogous residues in the crystal structure of basic FGF, Eriksson et al., Proc. Natl. Acad. Sd. USA 88:3441-3445 (1991); Zhang et al., Proc. Natl. Acad. Sci. USA 88:3446-3450 (1991). Consequently, it seemed important to examine the ability of these ligands to stabilize aFGF during thermal denaturation as monitored by both fluorescence and circular dichroism. The Tm value of aFGF increased from 27° C. to 43° C. (fluorescence)and 45° C. to 51° C. (CD) when a 100 molar excess (3X by weight) of (IrCl6)^-3 was present. Similarly, sulfate union (120 mM) produced a species that was even more dramatically stabilized, melting at 57° C. (CD).
^(a) Thermal melting temperatures were measured by circular dichroism
Samples contained […] aFGF in PBS buffer pH 7.2 with excess ligand
(1-3× by weight except for 120 mM sodium sulfate and 10 mM

aFGF [2] = target: T1, aFGF; assay: Thermal denaturation (Tm) of aFGF by fluorescence spectroscopy; assay type: biochemical; conditions: PBS pH 7.2
Experimental: Fluorescence spectra are obtained with a Spex Fluorolog-2 spectrofiuorometer using a 1 mm pathlength cuvette. Band passes from 1-2 nm are employed with sample absorptivities maintained below 0.1 at 280 nm. The temperature is controlled either manually or automatically as described above. Reproducibility of thermal denaturation temperatures (Tm) is ± 2° C.
To more directly ascertain the effect of heparin on aFGF stability, the temperature-induced denaturation of aFGF as a function of heparin concentration was monitored by fluorescence spectroscopy. Fluorescence spectra were obtained with a Spex Fluorolog-2 spectrofiuorometer using a 1 mm pathlength cuvette. Band passes from 1-2 nm were employed with sample absorptivities maintained below 0.1 at 280 nm. The temperature was controlled either manually or automatically as described above. Reproducibility of thermal denaturation temperatures (Tm) was ±2° C. […] Experiments were carried out at 100 μg/ml protein (6.3 μM) in a PBS buffer at pH 7.2. Curve drawn through data points for clarity only.
Studies of the stabilization of aFGF by heparin are difficult to interpret because of the inherent heterogeneity of heparin preparations, Lane and Lindahl, Eds. Heparin, Chemical and Biological Properties, Clinical Applications, Edward Arnold, London (1989); Jackson, et al., Physiol. Rev. 71: 481-539 (1991). In order to better understand the polyanionic stabilization of aFGF, a series of well-defined fragments of heparin were examined for their ability to stabilize aFGF against thermal denaturation. These enzymatically prepared and purified fragments varied in size from a disaccharide to a decasaccharide. Each fragment was incubated with aFGF at a 1:1 weight ratio in a PBS buffer. The sample was then stressed by temperature and structural changes in aFGF were monitored by both circular dichroism and fluorescence spectroscopy. […] All samples contained 100 μg/ml aFGF (6.3 μM)in a PBS buffer (pH 7.2) with 100 μg/ml of each heparin fragment.
Since these fragments of heparin have a well-defined molecular weight, the molar ratio of aFGF to ligand during these thermal denaturation experiments can be calculated. The Tm of aFGF as a function of the molar concentration of the hexasaccharide was measured by fluorescence spectroscopy. Fluorescence spectra were obtained with a Spex Fluorolog-2 spectrofiuorometer using a 1mm pathlength cuvette. Band passes from 1-2 nm were employed with sample absorptivities maintained below 0.1 at 280 nm. The temperature was controlled either manually or automatically as described above. Reproducibility of thermal denaturation temperatures (Tm) was ±2° C.
Analogous to the heparin experiments illustrated in Example 1 (FIG. 3), aFGF thermal stability was monitored by fluorescence spectroscopy as a function of concentration for several other of the polyanions. […] All samples contained 100 μg/ml of aFGF (6.3 μM) in a PBS buffer at pH 7.2.

[3] = tested on: BALB/c 3T3 A31 fibroblasts; assay: Fibroblast mitogenic assay ([3H]-thymidine incorporation into DNA); assay type: cell-based; parameters: Bioactivity (mitogenic activity of aFGF in the presence of ligand): unit not given here; conditions: complete absence of heparin; < = response did not plateau; * = cell death observed
Experimental: Biological activity of the formulation of the instant invention is determined by a modification of the fibroblast mitogenic assay as described by Linemeyer et al. in European Patent Application, Publication No. 259,953. BALB/c 3T3 A31 fibroblasts (American Type Culture Collection) are plated at about 3×10^5 cells per 32 cm^2 wells in culture media containing about 10% heat-inactivated calf serum and incubated in about 7% CO2 (pH 7.35±0.05). The cells become fully quiescent by replacing the media with serum free media at about 6, about 24 hours and about 48 hours later. At about 53 hours after plating samples of the various formulations are added and about 0.12 μg of dexamethasone are added. At about 65 hours each well is supplemented with about 0.4 μCi of [methyl-^3 H]-thymidine (20 Ci/mmole, Dupont) and 0.6 μg of unlabeled thymidine (Sigma), and at 80 hours the cells are processed for determination of radiolabel incorporation into DNA. Each dose-response point is the average of at least quadruplicate determinations. Other cell types such vascular endothelial cells and corneal endothelial cells can be employed to determine in vitro mitogenicity. The procedures are described in detail by Thomas et al., Proc. Natl. Acad. Sci. USA 82:6409-6431 (1985).
^(d) Mitogenic activity of aFGF was measured in the presence of ligan
indicated in the complete absence of heparin.
*indicates cell death observed during assay.
Biological activity of the formulation of the instant invention was determined by a modification of the fibroblast mitogenic assay as described by Linemeyer et al. in European Patent Application, Publication No. 259,953. BALB/c 3T3 A31 fibroblasts (American Type Culture Collection) were plated at 3×10^5 cells per 32 cm^2 well in culture media containing about 10% heat-inactivated calf serum and incubated in 7% CO2 (pH 7.35±0.05). The cells become fully quiescent by replacing the media with serum free media at 6, 24 hours and 48 hours later. At 53 hours after plating samples of the various formulations were added and 0.12 μg of dexamethasone was added, at 65 hours each well was supplemented with 0.4 μCi of [methyl-^3 H]-thymidine (20 Ci/mmole, Dupont) and 0.6 μg of unlabeled thymidine (Sigma), and at 80 hours the cells were processed for determination of radiolabel incorporation into DNA. Each dose-response point is the average of at least quadruplicate determinations. Other cell types such vascular endothelial cells and corneal endothelial cells can be employed to determine in vitro mitogenidty. The procedures are described in detail by Thomas et al., Proc. Natl. Acad. Sci. USA 82:6409-6431 (1985).

aFGF [4] = target: T1, aFGF; assay: Copper-catalyzed oxidation of aFGF thiol groups; assay type: biochemical; conditions: ligand 3X by weight; sodium sulfate 120 mM, tetrapolyphosphate 10 mM
Experimental: Copper-catalyzed oxidation of aFGF is carried out in the following manner. Acidic FGF (about 80 μg/ml) is incubated in a 20 mM Tris, 0.15M potassium chloride, pH 8 solution containing about 20 μM cuptic chloride for varying periods of time at room temperature. The reaction was terminated by the addition of 100 mM EDTA in the same buffer. A solution of about 0.7 ml of 0.25M Tris (about pH 8) containing about 2 mM EDTA and about 7 M GuHC1 is then added followed by about 35 μl of 4 mg/ml of DTNB (Sigma). Samples were incubated for 30 minutes, filtered through a 0.22 micron filter and the optical density measured at about 412 nm to determine sulfhydryl content, Riddles et al., Meth. Enzymol. 9:49-60 (1983). Relative standard deviation of the obtained values during time course experiments is 12%.
Acidic FGF contains three free cysteine residues at positions […], 83 and 117 in the polypeptide chain. […] It has also been shown that the copper catalyzed oxidative formation of a disulfide bond in the wild-type aFGF inactivates the protein in an in vitro mitogenic assay, Ortega et al., J. Biol. Chem. 266:5842-5846 (1991). Therefore, it was of interest to determine the extent to which heparin can stabilize aFGF against inactivation by oxidation. […] Samples contained 80 μg/ml aFGF with (a) 3X heparin by weight, (b) 0.1X heparin by weight and (c) buffer alone. As heparin was introduced and its concentration increased, the rate of copper-catalyzed oxidation decreased. For example, after 20 minutes, greater than 95% of the cysteine residues of aFGF are protected from oxidation with 3X heparin. FIG. 4B illustrates the fraction of remaining reactive thiol groups after a 10-minute incubation with cupric chloride as a function of heparin concentration.
Some aggregation of aFGF occurs under the conditions of these experiments presumably due to at least partial intermolecular disulfide formation. Thus, these measurements could simply be a measurement of the loss of solubility induced by copper association with aFGF. Several experiments, however, argue against this possibility. First, previous work has shown that at dilute protein concentration, copper does indeed catalyze oxidation of thiol groups of aFGF, Ortega et al., J. Biol. Chem. 266:5842-5846 (199 1 ). Second, as a control experiment, the copper-catalyzed oxidation of aFGF was carded out in a buffer containing 6 M GuHCl. Under these denaturing conditions, nearly 100% of the thiol groups in solution were lost after 10 minutes without visible aggregation. […] Regardless of the precise mechanism, copper addition is a distinct mechanism of inactivation compared to thermal stress.
Similar protection against oxidation experiments were carried out with other negatively charged compounds with an excess of ligand (3X by weight except for sodium sulfate at 120 mM and tetrapolyphosphate at 10 mM) added to aFGF before copper catalyzed oxidation. As shown in the second column of Table 2, all of these agents at least partially protect the cysteine residues of aFGF from oxidation.
^(b) Percentage of aFGF thiols remaining in solution after 10 min
incubation with cupric chloride. Experimental conditions are described in
FIG. 10. All samples contained ligand at 3× (by weight) except
sodium sulfate (120 mM) and tetrapolyphosphate (10 mM).

[5] = Storage stability of aFGF formulations (protein mass and biological activity); conditions: versus EDTA or EGTA
Text: Stabilization of aFGF can be determined by several independent methods including turbidity measurements, spectroscopic techniques, maintenance of protein mass, mitogenic activity and copper catalyzed oxidation. Since acidic fibroblast growth factor is unstable at physiological temperatures (undergoing large structural changes, including aggregation, which results in a loss of mitogenic and wound healing activity), human aFGF stability can be monitored by evaluating the turbidity of the pharmaceutical composition by following the kinetics of temperature induced aggregation of unfolded protein.

With `[Cl][Ir-3]([Cl])([Cl])([Cl])([Cl])[Cl]` [(IrCl6)^-3, reference compound] the “Tm of aFGF, circular dichroism” value (aFGF [1]; 3X ligand by weight) was 51 °C and the “thermal melting temperature (Tm) of aFGF, fluorescence” value (aFGF [2]; 3X ligand by weight) was 43 °C.

For `O=S(=O)([O-])[O-].[Na+].[Na+]` [Sodium Sulfate, sodium sulfate], the “Tm of aFGF (maximum Tm induced by ligand), circular dichroism” value (aFGF [1]) was 57 °C, the “Bioactivity (mitogenic activity of aFGF in the presence of ligand)” value [3] was 0 and the “Cu Oxidation (% SH Lost in 10 Mins)” value (aFGF [4]) was 25%.

For `O=S(=O)(O)OC[C@H]1O[C@@](COS(=O)(=O)O)(O[C@H]2O[C@H](COS(=O)(=O)O)[C@@H](OS(=O)(=O)O)[C@H](OS(=O)(=O)O)[C@H]2OS(=O)(=O)O)[C@@H](OS(=O)(=O)O)[C@@H]1OS(=O)(=O)O` [Sucrose octasulfate, sucrose octasulfate], the “Tm of aFGF (maximum Tm induced by ligand), circular dichroism” value (aFGF [1]) was 65 °C and the “Bioactivity (mitogenic activity of aFGF in the presence of ligand)” value [3] was 2.5.

In the case of `O=C(O)CC(O)(CC(=O)O)C(=O)O` [citrate], the “effectiveness of chelating agent in stabilizing the aFGF-stabilizer-HEC combination” value [5] is reported as “not as effective as EDTA or EGTA”.

In the case of `O=C(O)C1=C[C@H](O)[C@@H](OS(=O)(=O)O)[C@H](O[C@H]2[C@H](O)[C@@H](NS(=O)(=O)O)[C@@H](O)O[C@@H]2COS(=O)(=O)O)O1` [disaccharide, Δ.orgate.Ap2S(1→4)-α-D-GlcNp2S6S], the “effect of heparin fragment on Tm of aFGF” value (aFGF [2]; 1:1 weight ratio, fluorescence and circular dichroism) is reported as “did not influence the Tm of aFGF”.

For `N[C@@H](Cc1c[nH]cn1)C(=O)O` [histidine], the “effectiveness of chelating agent in stabilizing the aFGF-stabilizer-HEC combination” value [5] was “not as effective as EDTA or EGTA”.

For sulfated γ-cyclodextrin, the “Tm of aFGF (maximum Tm induced by ligand), circular dichroism” value (aFGF [1]) was 70 °C and the “Cu Oxidation (% SH Lost in 10 Mins)” value (aFGF [4]) was 5%.
